Test results taken from US20240199623A1 (ILDONG PHARMACEUTICAL CO., LTD., priority 2020, published 2024).

Molecular target: human wild type-CFTR (Homo sapiens, UniProt P13569)
Test: Cell-based YFP assay
Set-up: expressed in transfected cells; host or cells: CHO-K1 (Chinese hamster ovary)
Settings: CHO-K1 cells expressing human wild type-CFTR and YFP-H148Q/I152L; forskolin 20 μM = 100% activity; read-out: Cell-based YFP Assay (EC50) Concentration Range
Protocol: Forskolin (Tocris cat. #1099), Dimethyl sulfoxide (Sigma cat. #D4540), FLUO star Omega microplate reader (BMG Labtech, Ortenberg, Germany), MARS Data Analysis Software (BMG Labtech), GraphPad Prism 5 (GraphPad Software, Inc.) Chinese hamster ovary (CHO-K1) cells expressing human wild type-CFTR and halide sensor YFP-H148Q/I152L were constructed and grown in Dulbecco's modified Eagle's medium (DMEM) supplemented with 10% FBS, 2 mM glutamine, 100 units/ml penicillin and 100 μg/ml streptomycin. Chinese hamster ovary (CHO-K1) cells expressing human wild type-CFTR and halide sensor YFP-H148Q/I152L were seeded in 96-well microplate with 2×10^4 cells/well and incubated in 37° C., 48 hours. Then, each well was washed 3 times with PBS and 100 μL PBS was added in each well. […] YFP fluorescence signal affected by I^− ion influx through CFTR channel was measured in 37° C., FLUO star Omega microplate reader according to the following steps: • i) basal 2 seconds; • ii) 140 mM I^− solution 100 μL addition to each well; • iii) YFP fluorescence signal measurement start after 6 seconds; and • iv) following 14 seconds signal detection in every 0.4 seconds periods. […] Experiments were performed in triplicates and the data was averaged. EC50 values were calculated with MARS Data Analysis Software (BMG Labtech) and GraphPad Prism 5.

Sequence of human wild type-CFTR (P13569 whole entry): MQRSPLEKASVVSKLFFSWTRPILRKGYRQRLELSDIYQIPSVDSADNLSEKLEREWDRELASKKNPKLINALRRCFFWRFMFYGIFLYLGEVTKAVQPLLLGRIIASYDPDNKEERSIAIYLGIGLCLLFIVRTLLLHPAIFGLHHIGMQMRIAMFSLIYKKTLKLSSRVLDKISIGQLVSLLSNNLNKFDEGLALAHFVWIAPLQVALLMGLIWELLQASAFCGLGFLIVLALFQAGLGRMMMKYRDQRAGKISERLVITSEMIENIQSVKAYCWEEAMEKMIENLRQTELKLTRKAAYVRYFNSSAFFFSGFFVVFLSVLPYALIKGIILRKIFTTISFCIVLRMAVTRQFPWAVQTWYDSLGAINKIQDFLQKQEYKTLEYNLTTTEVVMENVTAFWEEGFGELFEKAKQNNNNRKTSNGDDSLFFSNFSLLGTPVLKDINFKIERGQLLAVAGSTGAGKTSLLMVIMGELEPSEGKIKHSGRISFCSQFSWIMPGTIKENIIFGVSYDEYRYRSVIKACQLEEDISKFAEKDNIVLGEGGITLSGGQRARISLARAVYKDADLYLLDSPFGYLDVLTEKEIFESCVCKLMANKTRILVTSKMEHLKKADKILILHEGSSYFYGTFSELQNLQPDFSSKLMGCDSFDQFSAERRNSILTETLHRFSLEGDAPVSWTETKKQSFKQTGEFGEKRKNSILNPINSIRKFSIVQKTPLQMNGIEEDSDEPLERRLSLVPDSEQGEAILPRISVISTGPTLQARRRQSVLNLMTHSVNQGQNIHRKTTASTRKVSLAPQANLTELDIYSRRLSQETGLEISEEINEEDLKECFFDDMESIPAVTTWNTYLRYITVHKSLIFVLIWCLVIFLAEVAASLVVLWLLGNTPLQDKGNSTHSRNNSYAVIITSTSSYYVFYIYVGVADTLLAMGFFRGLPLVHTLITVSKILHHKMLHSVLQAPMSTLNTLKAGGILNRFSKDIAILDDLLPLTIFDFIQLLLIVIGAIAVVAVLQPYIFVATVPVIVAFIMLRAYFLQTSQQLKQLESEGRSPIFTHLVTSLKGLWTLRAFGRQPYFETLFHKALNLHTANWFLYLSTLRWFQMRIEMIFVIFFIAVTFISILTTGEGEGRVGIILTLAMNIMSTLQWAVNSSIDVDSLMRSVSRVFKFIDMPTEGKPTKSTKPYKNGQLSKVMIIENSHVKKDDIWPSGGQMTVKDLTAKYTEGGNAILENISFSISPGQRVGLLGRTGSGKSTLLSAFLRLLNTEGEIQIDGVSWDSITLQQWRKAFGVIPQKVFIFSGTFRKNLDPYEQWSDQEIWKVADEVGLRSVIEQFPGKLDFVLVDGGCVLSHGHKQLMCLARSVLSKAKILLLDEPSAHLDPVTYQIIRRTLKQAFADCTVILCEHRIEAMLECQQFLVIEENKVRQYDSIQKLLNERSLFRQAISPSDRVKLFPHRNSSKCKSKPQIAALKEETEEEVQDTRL

| EC50 [µM] | SMILES |
| --- | --- |
| 0.2 to 2 | COc1ccc(-c2ccnc3cc(C(=O)N4C[C@@H](C)N[C@@H](C)C4)nn23)cc1OC [Compound 358, (7-(3,4-dimethoxyphenyl)pyrazolo[1,5-a]pyrimidin-2-yl) ((3R,5S)-3,5-dimethylpiperazin-1-yl) methanone] |
| < 0.2 | COc1ccc(-c2ccnc3cc(C(=O)Nc4ccc(NC(=O)CN(C)C)cc4)nn23)cc1OC [Compound 258, 7-(3,4-dimethoxyphenyl)-N-(4-(2-(dimethylamino)acetamido)phenyl)pyrazolo[1,5-a]pyrimidine-2-carboxamide] |
| ≥ 2 | COc1ccc(-c2ccnc3cc(C(=O)N[C@H]4CC[C@H](C(=O)N5CCC(N6CCCCC6)CC5)CC4)nn23)cc1OC [Compound 343, N-((1R,4R)-4-([1,4′-bipiperidine]-1′-carbonyl)cyclohexyl)-7-(3,4-dimethoxyphenyl)pyrazolo [1,5-a]pyrimidine-2-carboxamide] |
| < 0.2 | COc1ccc(-c2ccnc3cc(C(=O)N4CCN(C(=O)c5ccco5)[C@@H](C)C4)nn23)cc1OC [Compound 353, (S)-(7-(3,4-dimethoxyphenyl)pyrazolo[1,5-a]pyrimidin-2-yl)(4-(furan-2-carbonyl)-3-methylpiperazin-1-yl)methanone] |
| ≥ 2 | CCOc1ccc(NC(=O)c2cc3nccc(-c4ccc(Cl)cc4F)n3n2)cc1 [Compound 304, 7-(4-chloro-2-fluorophenyl)-N-(4-ethoxyphenyl)pyrazolo [1,5-a]pyrimidine-2-carboxamide] |
| ≥ 2 | COc1ccc(-c2ccnc3cc(C(=O)N4CCc5ccc(C(=O)N6CCOCC6)cc5C4)nn23)cc1OC [Compound 238, (7-(3,4-dimethoxyphenyl)pyrazolo[1,5-a]pyrimidin-2-yl)(7-(morpholine-4-carbonyl)-3,4-dihydroisoquinolin-2(1H)-yl)methanone] |
| 0.2 to 2 | COc1ccc(-c2ccnc3cc(C(=O)N4CCN[C@@H](C(C)C)C4)nn23)cc1OC [Compound 372, (S)-(7-(3,4-dimethoxyphenyl)pyrazolo[1,5-a]pyrimidin-2-yl)(3-isopropylpiperazin-1-yl)methanone] |
| ≥ 2 | COc1ccc(-c2ccnc3cc(C(=O)N4CCc5ccc(C(=O)N6CCN(C)CC6)cc54)nn23)cc1OC [Compound 252, (7-(3,4-dimethoxyphenyl)pyrazolo[1,5-a]pyrimidin-2-yl)(6-(4-methylpiperazine-1-carbonyl)indolin-1-yl)methanone] |
| < 0.2 | COc1ccc(-c2ccnc3cc(C(=O)N4CCN(C(=O)Nc5ccccc5)[C@@H](C)C4)nn23)cc1OC [Compound 354, (S)-4-(7-(3,4-dimethoxy-phenyl)pyrazolo[1,5-a]pyrimidine-2-carbonyl)-2-methyl-N-phenylpiperazine-1-carboxamide] |
| < 0.2 | COc1ccc(-c2ccnc3cc(C(=O)N4CCN(C(=O)c5cc(F)ccc5F)[C@@H](C)C4)nn23)cc1OC [Compound 356] |
| < 0.2 | COc1ccc(-c2ccnc3cc(C(=O)N4CCN(C(=O)c5ccccc5)[C@@H](C(C)C)C4)nn23)cc1OC [Compound 376, (S)-(4-benzoyl-3-isopropylpiperazin-1-yl)(7-(3,4-dimethoxyphenyl)pyrazolo[1,5-a]pyrimidin-2-yl)methanone] |
| 0.2 to 2 | COc1ccc(-c2ccnc3cc(C(=O)N[C@H]4CC[C@H](C(=O)N5CCN(c6ccccn6)CC5)CC4)nn23)cc1OC [Compound 342, 7-(3,4-dimethoxphenyl)-N-((1R,4R)-4-(4-(pyridin-2-yl)piperazine-1-carbonyl)cyclohexyl) pyrazolo[1,5-a] pyrimidine-2-carboxamide] |
| 0.2 to 2 | CCOC(=O)[C@H]1CC[C@H](NC(=O)c2cc3nccc(-c4ccc(OC)c(OC)c4)n3n2)CC1 [Compound 330, ethyl (1R,4R)-4-(7-(3,4-dimethoxyphenyl)pyrazolo [1,5-a]pyrimidine-2-carboxamido)cyclohexane-1-carboxylate] |
| ≥ 2 | COc1ccc(-c2ccnc3cc(C(=O)N4CCc5ccc(C(=O)O)cc54)nn23)cc1OC [Compound 232, 1-(7-(3,4-dimethoxyphenyl)pyrazolo[1,5-a]pyrimidine-2-carbonyl) indoline-6-carboxylic acid] |
| 0.2 to 2 | COc1ccc(-c2ccnc3cc(C(=O)N[C@]45CC[C@](N6CCOCC6)(CC4)CC5)nn23)cc1OC [Compound 320, 7-(3,4-dimethoxyphenyl)-N-(4-morpholinobicyclo[2.2.2]octan-1-yl) pyrazolo[1,5-a]pyrimidine-2-carboxamide] |

Second part, the compound before the results:

| SMILES | EC50 [µM] |
| --- | --- |
| COc1ccc(-c2ccnc3cc(C(=O)NC(=Cc4ccccc4)C(=O)O)nn23)cc1OC [Compound 108, 2-(7-(3,4-dimethoxyphenyl)pyrazolo[1,5-a]pyrimidine-2-carboxamido)-3-phenylacrylic acid] | ≥ 2 |
| COc1ccc(-c2ccnc3cc(C(=O)N4CCN(C(=O)CO)CC4)nn23)cc1OC [Compound 90, 1-(4-(7-(3,4-dimethoxyphenyl)pyrazolo[1,5-a]pyrimidine-2-carbonyl)piperazin-1-yl)-2-hydroxyethan-1-one] | ≥ 2 |
| COc1ccc(-c2ccnc3cc(C(=O)N4CCNC(=O)C4)nn23)cc1OC [Compound 180, 4-(7-(3,4-dimethoxyphenyl)pyrazolo[1,5-a]pyrimidine-2-carbonyl) piperazin-2-one] | ≥ 2 |
| COc1ccc(-c2ccnc3cc(C(=O)Nc4ccc(C(=O)OCCN5CCCC5)cc4)nn23)cc1OC [Compound 225, 2-(pyrrolidin-1-yl)ethyl 4-(7-(3,4-dimethoxyphenyl)pyrazolo [1,5-a]pyrimidine-2-carboxamido)benzoate] | ≥ 2 |
| COc1ccc(-c2ccnc3cc(C(=O)N4CCNC(C)(C)C4)nn23)cc1OC [Compound 182, (7-(3,4-dimethoxyphenyl)pyrazolo[1,5-a]pyrimidin-2-yl)(3,3-dimethylpiperazin-1-yl)methanone] | ≥ 2 |
| COc1ccc(-c2ccnc3cc(C(=O)N4CCC(=O)C4)nn23)cc1OC [Compound 117, 1-(7-(3,4-dimethoxyphenyl)pyrazolo[1,5-a]pyrimidine-2-carbonyl) pyrrolidin-3-one] | ≥ 2 |
| COc1ccc(-c2ccnc3cc(C(=O)N4CC[C@H](O)C4)nn23)cc1OC [Compound 148, (S)-(7-(3,4-dimethoxyphenyl)pyrazolo[1,5-a]pyrimidin-2-yl)(3-hydroxypyrrolidin-1-yl)methanone] | ≥ 2 |
| COC(=O)c1ccc(NC(=O)c2cc3nccc(-c4ccc(OC)c(OC)c4)n3n2)cn1 [Compound 190, methyl 5-(7-(3,4-dimethoxyphenyl)pyrazolo [1,5-a]pyrimidine-2-carboxamido)picolinate] | 0.2 to 2 |
| COC(=O)[C@@H](C)NC(=O)c1ccc(NC(=O)c2cc3nccc(-c4ccc(OC)c(OC)c4)n3n2)cc1 [Compound 64, methyl (4-(7-(3,4-dimethoxyphenyl)pyrazolo[1,5-a]pyrimidine-2-carboxamido)benzoyl)-D-alaninate] | < 0.2 |
| COc1ccc(-c2ccnc3cc(C(=O)Nc4ccc(C(=O)NCCCN5CCN(C)CC5)cc4)nn23)cc1OC [Compound 177, 7-(3,4-dimethoxyphenyl)-N-(4-((3-(4-methylpiperazin-1-yl)propyl)carbamoyl)phenyl)pyrazolo[1,5-a]pyrimidine-2-carboxamide] | ≥ 2 |
